The text below walks through data of patent US11325921B2, “Optically active crosslinked cyclic secondary amine derivative” (Sumitomo Dainippon Pharma Co., Ltd., priority 2018, dated 2022).

For data set [1], the system named is MEIS1 mRNA in MV4; 11 cells. Description: Test 3: inhibition of mRNA transcription, MEIS1. It counts as cell-based. The settings on record: for mRNA transcription inhibition activity (in words): MEIS1 and HOXA9, MV4, 1 μM, summary of the table; for mrna remaining at 1 µM: Homo sapiens, read-out: mRNA at 1 μM (% control) MEIS1. As to the method:
(§1) MV4; 11 cells were obtained from American Type Culture Collection (ATCC). The cells were cultured at 37° C. in the presence of 5% CO2 in RPMI 1640 medium containing 10% fetal bovine serum and 1% penicillin/streptomycin. To the MV4; 11 cells was added each test compound to adjust the final concentration to 1 μmol/L, and the cells were cultured at 37° C. in the presence of 5% CO2 for 20 to 24 hours. After the incubation, the total RNA was extracted from the cells with RNeasy™ Mini Kit (QIAGEN, 74106), and cDNA was synthesized with Superscript™ VILO™ cDNA Synthesis Kit (Invitrogen, #11754250). By using TaqMan™ Gene Expression Master Mix (Applied Biosystems, 4369016) and TaqMan™ probe (Applied Biosystems), the expression level of mRNA was quantified from the obtained cDNA with 7900HT (Applied biosystems). The mRNA expression level of each obtained gene was fitted with the expression level of mRNA of GAPDH.

For another data set, the system named is RS4; 11 cells. Description: Test 2: inhibition of cell proliferation, RS4; 11. The settings on record: for cell proliferation inhibition activity (in words, good) / cell proliferation inhibitory activity (in words, potent): 11 and MOLM-13 cells, summary of the table; for cell proliferation inhibitory activity (in words, potent): 'especially'; for IC50: 11 cells, cultured 7 days, PrestoBlue. It counts as cell-based. On the procedure:
(§2) RS4; 11 cells were obtained from American Type Culture Collection (ATCC). The cells were cultured at 37° C. in the presence of 5% CO2 in RPMI 1640 medium containing 10% fetal bovine serum and 1% penicillin/streptomycin. MOLM-13 cells were separately obtained from DSMZ. The cells were cultured at 37° C. in the presence of 5% CO2 in RPMI 1640 medium containing 20% fetal bovine serum and 1% penicillin/streptomycin.
(§3) The cells were plated to a 96-well plate in 2000 cells/well, each test compound was added thereto to adjust the final concentration of DMSO to 0.1% of DMSO, and the cells were cultured for 7 days. After the cultivation, the cell viability was calculated with PrestoBlue™ Cell Viability Reagent (Invitrogen, A13261). The IC50 value was calculated from a survival curve, that corresponds to the concentration of the test compound at which the cell proliferation inhibition rate is 50%.

The subject of the next data set is MOLM-13 cells. Nature of the data set: Test 2: inhibition of cell proliferation, MOLM-13. It is filed as cell-based. The settings on record: cultured 7 days, PrestoBlue. As to the method: as §2, §3
Data set [2] deals with Menin-MLL binding (His-Menin1-615 / MLL1-172-FLAG) (Homo sapiens (Human), UniProt O00255). Description: Test 1: inhibition of the Menin-MLL binding (HTRF). The settings on record: for Menin-MLL binding inhibition activity (in words): summary of the table. As to the method: Menin1-615 wherein 6× His tag and HA tag are inserted in the N-terminus, and myc tag is inserted in the C-terminus (hereinafter, referred to as His-Menin1-615), was diluted with an assay buffer (25 mmol/L HEPES, 150 mmol/L NaCl, 1 mmol/L dithiothreitol, 0.5% (w/v) Tween 80, 0.3% (w/v) BSA, 0.3% (w/v) skim milk) to adjust the final concentration Lo 30 nmol/L. The test compounds were also diluted with the assay buffer to adjust each concentration of the test compounds to 0.005 to 5 μmol/L. The prepared His-Menin1-615 and test compounds were added to a light-shielding 384-well low-volume plate (Corning, #4514) in 2 μL/well and 6 μL/well, respectively, and the plate was covered with a lid for light-shielding (Corning, r-3935), and incubated at room temperature for 3 hours. After the incubation, MLL1-172 wherein FLAG tag is inserted in the C-terminus (MLL1-172-FLAG), was separately diluted with the assay buffer to adjust the final concentration to 50 nmol/L. The prepared MLL1-172-FLAG was added to the above plate in 2 μL/well, and the plate was covered with a lid for light-shielding and incubated at room temperature for an hour.
Menin-MLL binding (His-Menin1-615 / MLL1-172-FLAG), sequence (O00255 other isoform, or with tags, fused parts or gaps): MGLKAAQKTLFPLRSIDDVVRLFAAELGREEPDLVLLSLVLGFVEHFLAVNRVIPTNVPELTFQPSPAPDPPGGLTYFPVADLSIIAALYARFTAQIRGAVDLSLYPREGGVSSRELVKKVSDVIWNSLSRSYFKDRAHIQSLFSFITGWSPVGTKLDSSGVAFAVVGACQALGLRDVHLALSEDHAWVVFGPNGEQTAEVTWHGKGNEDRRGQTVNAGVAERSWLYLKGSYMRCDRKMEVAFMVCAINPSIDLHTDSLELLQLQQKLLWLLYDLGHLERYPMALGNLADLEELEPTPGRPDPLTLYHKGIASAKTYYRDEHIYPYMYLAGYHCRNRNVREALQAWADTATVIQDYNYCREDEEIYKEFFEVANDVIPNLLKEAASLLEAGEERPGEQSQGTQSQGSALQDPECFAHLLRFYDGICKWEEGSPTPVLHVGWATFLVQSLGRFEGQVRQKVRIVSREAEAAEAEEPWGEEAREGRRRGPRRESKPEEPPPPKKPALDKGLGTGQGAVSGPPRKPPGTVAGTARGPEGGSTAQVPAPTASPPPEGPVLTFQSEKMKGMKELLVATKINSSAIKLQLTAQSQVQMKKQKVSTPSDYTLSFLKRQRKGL
Then, anti-6HIS-d2 antibody (cisbio, 61HISDLA) and anti-FLAGM2-K antibody (cisbio, 61FG2KLA) were diluted with an antibody dilution buffer (50 mmol/L Tris, 150 mmol/L NaCl, 800 mmol/L KF, pH 7.4) to adjust the final concentration to 1.4 μg/mL to prepare an antibody mixture. The prepared antibody mixture was added to the above plate in 10 μL/well, and the plate was covered with a lid and incubated at 4° C. for 17 to 24 hours. After the incubation, the signal was detected with RUBYstar (BMG LABTECH). The binding inhibition rate (%) at each concentration of the test compounds was calculated from the following formula, and the IC50 value was obtained, that corresponds to the concentration of the test compound at which the binding inhibition rate is 50%.

Data set [3] deals with HOXA9 mRNA in MV4; 11 cells. Description: Test 3: inhibition of mRNA transcription, HOXA9. It counts as cell-based. The settings on record: 20 to 24 hours, fitted with GAPDH; for mrna remaining at 1 µM: Homo sapiens, read-out: mRNA at 1 μM (% control) HOXA9. On the procedure:
as §1

Data set [4] in a line: Test 4: pharmacokinetic study. It is filed as in vivo. The settings on record: male SD rat, oral, 10 mg/kg; for AUC(0-t): plasma, 24 hours; for compound-exposure in plasma (in words): summary of the table. As to the method:
The test compound suspended in 0.5% methylcellulose was orally administered to 7-week-old male SD rat in a dose of 10 mg/kg. The blood sample was taken from jugular vein without anesthesia over time for 24 hours. The blood sample was centrifuged to obtain plasma. The plasma was pre-treated by methanol extraction method, and then analyzed with an LC-MS/MS to determine the concentration of the test compound. Based on the data from 0 hour after the administration until the time (t) when there was the final detection in the plasma, AUC was calculated by trapezoidal method.

Setting [5] is: MV4, 20 to 24 hours, fitted with GAPDH.

The IC50 is the concentration that gives 50% inhibition. Lower therefore signals inhibition by little substance.

Where two headings read alike, the source gives them in different places.

Turning to “4-{6-[(1S,3S,4S,5S)-5-fluoro-2-azabicyclo[2.2.2]octane-3-carbonyl]-2,6-diazaspiro[3.3]heptan-2-y}-2-(2,2,2-trifluoroethyl)thieno[2,3-b]pyridine-5-carbonitrile [Example 22]”, the “mRNA transcription inhibition activity (in words)” value in data set [1] was “showed the mRNA transcription inhibition activity”. Further, in data set [1] (setting [5]), the “mRNA at 1 μM (% control) MEIS1” value is listed as 18.1 % control. Besides, in the data set with RS4; 11 cells, the “cell proliferation inhibition activity (in words, good)” value (“cell proliferation inhibition activity” for short) is on record as “good”; the “cell proliferation inhibitory activity (in words, potent)” value was “potent”; it took 100 nM to reach half-maximal inhibition (IC50). The IC50 in the data set with MOLM-13 cells worked out at 90 nM. Also, in data set [2], the half-maximal inhibitory concentration (IC50) turned out to be 6.2 nM and the “Menin-MLL binding inhibition activity (in words)” value is “potent”. Moreover, the “mRNA at 1 μM (% control) HOXA9” value in data set [3] came to 37.0 % control. This compound registered an AUC(0-t) in data set [4] of 244 ng·h/mL.
With `O=C([C@H]1N[C@H]2CC[C@@H]1[C@@H](F)C2)N1CC2(C1)CN(c1c(C(F)(F)F)cnc3sc(CC(F)(F)F)cc13)C2` [Example 1, {(1S,3S,4S,5S)-5-Fluoro-2-azabicyclo[2.2.2]octan-3-yl}{6-[2-(2,2,2-trifluoroethyl)-5-(trifluoromethyl)thieno[2,3-b]pyridin-4-yl]-2,6-diazaspiro[3.3]heptan-2-yl}methanone], the results for the mrna remaining at 1 µM in data set [1] (setting [5]) and in data set [3] were 18% and 43.3%, respectively. For the same compound, the “mRNA transcription inhibition activity (in words)” value in data set [1] is on record as “showed the mRNA transcription inhibition activity”. Also, in the data set with RS4; 11 cells, the “cell proliferation inhibition activity” value was “good”. In addition, the “cell proliferation inhibitory activity (in words, potent)” value in the data set with RS4; 11 cells is “potent”. The IC50 in the data set with RS4; 11 cells (Homo sapiens, 168 h) was 90 nM; in the data set on MOLM-13 cells (Homo sapiens, 168 h), 80 nM; in data set [2], 13.3 nM. In addition, the “Menin-MLL binding inhibition activity (in words)” value in data set [2] is listed as “potent”. For the same compound, the AUC(0-t) in data set [4] (read-out: AUC0-t) is 2410 ng·h/mL. In addition, the “compound-exposure in plasma (in words)” value in data set [4] is listed as “good compound-exposure in plasma”.
As for `O=C([C@H]1N[C@@H]2CC[C@H]1C2)N1CC2(C1)CN(c1c(C(F)(F)F)cnc3sc(CC(F)(F)F)cc13)C2` [Example 2, [(1R,3S,4S)-2-azabicyclo[2.2.1]heptan-3-yl]{6-[2-(2,2,2-trifluoroethyl)-5-(trifluoromethyl)thieno[2,3-b]pyridin-4-yl]-2,6-diazaspiro[3.3]heptan-2-yl}methanone], the mrna remaining at 1 µM in data set [1] (setting [5]) worked out at 32%; in data set [3] it was 34.3%. For the same compound, the IC50 with RS4; 11 cells (Homo sapiens, 168 h) is 200 nM; with MOLM-13 cells (Homo sapiens, 168 h), 260 nM; in data set [2], 17.8 nM. Also, the AUC(0-t) in data set [4] (read-out: AUC0-t) was determined as 1960 ng·h/mL. Also, the “compound-exposure in plasma (in words)” value in data set [4] was “good compound-exposure in plasma”.
As for `O=C([C@H]1NC2CCC1CC2)N1CC2(C1)CN(c1c(C(F)(F)F)cnc3sc(CC(F)(F)F)cc13)C2` [Example 3, [(3S)-2-azabicyclo[2.2.2]octan-3-yl]{6-[2-(2,2,2-trifluoroethyl)-5-(trifluoromethyl)thieno[2,3-b]pyridin-4-yl]-2,6-diazaspiro[3.3]heptan-2-yl}methanone], the mrna remaining at 1 µM in data set [1] (setting [5]) was 18.7%; in data set [3], 32%. Further, the IC50 with RS4; 11 cells (Homo sapiens, 168 h) stood at 200 nM; in the data set with MOLM-13 cells (Homo sapiens, 168 h), 210 nM; in data set [2] it was 31.8 nM. In addition, in data set [4] (read-out: AUC0-t), the AUC(0-t) came to 1210 ng·h/mL. Moreover, the “compound-exposure in plasma (in words)” value in data set [4] is “good compound-exposure in plasma”.
Consider `O=C([C@H]1N[C@H]2C[C@@H]1[C@@H](F)C2)N1CC2(C1)CN(c1c(C(F)(F)F)cnc3sc(CC(F)(F)F)cc13)C2` [Example 9, [(1S,3S,4S,5S)-5-fluoro-2-azabicyclo[2.2.1]heptan-3-yl]{6-[2-(2,2,2-trifluoroethyl)-5-(trifluoromethyl)thieno[2,3-b]pyridin-4-yl]-2,6-diazaspiro[3.3]heptan-2-yl}methanone], for which the mrna remaining at 1 µM in data set [1] (setting [5]) is 34.2%; in data set [3] it was 49.4%. In addition, the IC50 with RS4; 11 cells (Homo sapiens, 168 h) was 170 nM; in the data set with MOLM-13 cells (Homo sapiens, 168 h), 280 nM; in data set [2], 31.7 nM. Also, the AUC(0-t) in data set [4] (read-out: AUC0-t) turned out to be 3750 ng·h/mL. The “compound-exposure in plasma (in words)” value in data set [4] is on record as “good compound-exposure in plasma”.
For `N#Cc1cnc2sc(CC(F)(F)F)cc2c1N1CC2(CN(C(=O)[C@H]3N[C@H]4CC[C@@H]3C(F)(F)C4)C2)C1` [Example 23, 4-{6-[(1S,3S,4S)-5,5-difluoro-2-azabicyclo[2.2.2]octane-3-carbonyl]-2,6-diazaspiro[3.3]heptan-2-yl}-2-(2,2,2-trifluoroethyl)thieno[2,3-b]pyridine-5-carbonitrile], the results for the mrna remaining at 1 µM in data set [1] (setting [5]) and in data set [3] were 45.4% and 49.3%, respectively. Also, the IC50 with RS4; 11 cells (Homo sapiens, 168 h) was 280 nM; in the data set on MOLM-13 cells (Homo sapiens, 168 h), 290 nM; in data set [2] it was 11 nM. In addition, the AUC(0-t) in data set [4] (read-out: AUC0-t) came to 668 ng·h/mL.
For `O=C([C@H]1N[C@@H]2CC[C@H]1C2)N1CC2(C1)CN(c1c(C(F)F)cnc3sc(CC(F)(F)F)cc13)C2` [Example 27, [(1R,3S,4S)-2-azabicyclo[2.2.1]heptan-3-yl]{6-[5-(difluoromethyl)-2-(2,2,2-trifluoroethyl)thieno[2,3-b]pyridin-4-yl]-2,6-diazaspiro[3.3]heptan-2-yl}methanone], the mrna remaining at 1 µM in data set [1] (setting [5]) amounted to 48.9%; in data set [3], 53.5%. The “mRNA transcription inhibition activity (in words)” value in data set [1] is on record as “showed the mRNA transcription inhibition activity”. Moreover, the “cell proliferation inhibition activity” value with RS4; 11 cells is on record as “good”. Also, the IC50 amounted to 560 nM in the data set with RS4; 11 cells (Homo sapiens, 168 h); 940 nM in the data set with MOLM-13 cells (Homo sapiens, 168 h); 26 nM in data set [2]. Besides, the “Menin-MLL binding inhibition activity (in words)” value in data set [2] is listed as “potent”.
